The structures appear in SMILES notation. Bounds are passed on as bounds.

The first assay concerns HeLa. In words: Inhibition of PAR polymer formation in H2O2-stimulated human HeLa cells. The format is functional, cell-based.
For `CN1CCCN(C(=O)c2cc3[nH]c(=O)c4ccccc4n3n2)CC1`, the concentration giving a half-maximal response (EC50) – broadly, the concentration that produces a half-maximal response – is 3.9 µM.

In another assay the target is Poly [ADP-ribose] polymerase 1 (Homo sapiens, UniProt P09874). In words: Inhibition of PARP1 by scintillation proximity assay.
Sequence of Poly [ADP-ribose] polymerase 1 (P09874 whole entry): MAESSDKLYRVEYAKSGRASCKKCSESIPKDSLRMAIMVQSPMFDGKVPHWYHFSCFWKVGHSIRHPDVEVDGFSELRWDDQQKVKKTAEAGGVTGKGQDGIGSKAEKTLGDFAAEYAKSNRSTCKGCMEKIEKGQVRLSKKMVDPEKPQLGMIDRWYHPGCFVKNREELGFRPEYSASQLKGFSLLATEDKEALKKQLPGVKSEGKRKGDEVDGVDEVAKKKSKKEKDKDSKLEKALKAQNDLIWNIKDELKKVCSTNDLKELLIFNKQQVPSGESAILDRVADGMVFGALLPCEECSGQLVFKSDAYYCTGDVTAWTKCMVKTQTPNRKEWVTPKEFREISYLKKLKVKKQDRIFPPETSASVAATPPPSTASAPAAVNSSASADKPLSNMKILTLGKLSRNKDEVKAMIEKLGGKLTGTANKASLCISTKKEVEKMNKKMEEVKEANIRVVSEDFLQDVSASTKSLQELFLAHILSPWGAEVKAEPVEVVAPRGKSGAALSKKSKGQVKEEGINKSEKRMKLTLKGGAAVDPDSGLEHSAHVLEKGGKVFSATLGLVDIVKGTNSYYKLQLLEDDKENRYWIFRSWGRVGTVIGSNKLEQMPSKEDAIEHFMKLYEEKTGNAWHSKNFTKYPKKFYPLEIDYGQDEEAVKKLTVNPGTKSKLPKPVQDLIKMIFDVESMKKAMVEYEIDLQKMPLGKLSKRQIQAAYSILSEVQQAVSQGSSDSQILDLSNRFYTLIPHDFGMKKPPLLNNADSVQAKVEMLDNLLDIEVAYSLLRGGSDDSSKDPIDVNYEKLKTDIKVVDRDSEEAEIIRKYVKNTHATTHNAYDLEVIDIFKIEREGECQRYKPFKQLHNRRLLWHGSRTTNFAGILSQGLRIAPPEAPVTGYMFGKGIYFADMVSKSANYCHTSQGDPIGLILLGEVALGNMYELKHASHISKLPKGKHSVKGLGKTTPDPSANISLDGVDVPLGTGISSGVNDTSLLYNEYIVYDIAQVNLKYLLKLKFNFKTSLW
In the case of `CC(C)Cc1cc2[nH]c(=O)c3ccccc3n2n1`, the half-maximal inhibitory concentration (IC50) (usually the concentration that gives 50% inhibition) came out at 0.4 µM.
Consider `O=c1[nH]c2cc(-c3ccc(OC(F)(F)F)cc3)nn2c2ccccc12`, for which the half-inhibitory concentration (IC50) was > 1 µM.
For `CN1CCCN(C(=O)c2cnn3c2[nH]c(=O)c2ccccc23)CC1`, the IC50 was > 1 µM.
On the same count and under the same terms, with `O=C(c1cccc(-c2cc3[nH]c(=O)c4ccccc4n3n2)c1)N1CCN2CCC[C@H]2C1` the figure was 0.5 µM; with `O=c1[nH]c2cc(C3CCCCC3)nn2c2ccccc12`, 0.2 µM.
`Cc1ccc(-c2cc3[nH]c(=O)c4ccccc4n3n2)cc1` came in with a half-maximal inhibitory concentration (IC50) of 0.5 µM.
`CN1CCC(CNC(=O)c2cc3[nH]c(=O)c4ccccc4n3n2)C1` (stereo not given) returned an IC50 of 0.08 µM. Against the preceding molecule, the IC50 is about 6.2-fold lower.
Still for that read-out and setting: with `N#Cc1ccc(-c2cc3[nH]c(=O)c4ccccc4n3n2)cc1` the figure was > 1 µM; with `CN(C)CCN(C)C(=O)c1cc2[nH]c(=O)c3ccccc3n2n1`, 0.1 µM.
Molecule `O=c1[nH]c2cc(-c3cccc(Cl)c3)nn2c2ccccc12` registered a 50% inhibitory concentration (IC50) of 0.5 µM.
In the case of `O=c1[nH]c2cc(-c3cccc(Br)c3)nn2c2ccccc12`, half-maximal inhibition (IC50) was put at 0.6 µM. The IC50 values of the last two molecules are within 1.5-fold of each other.
Same read-out and setting: next, `O=C(NCCCN1CCOCC1)c1cc2[nH]c(=O)c3ccccc3n2n1`: 0.14 µM; `O=c1[nH]c2cc(-c3cccs3)nn2c2ccccc12`: 0.15 µM.
On the same count and under the same terms, next, `O=c1[nH]c2cc(-c3ccco3)nn2c2ccccc12`: 0.2 µM.
Same read-out and setting: with `Cc1cc2[nH]c(=O)c3ccccc3n2n1` the figure was 0.3 µM.
For `CN1CCCN(C(=O)c2cc3[nH]c(=O)c4ccccc4n3n2)CC1`, the midpoint of inhibition, the IC50, lay at 0.01 µM.
Still for that read-out and setting: next, `COc1cccc(-c2cc3[nH]c(=O)c4ccccc4n3n2)c1OC`: 0.1 µM; `CN(C)CCN(C)C(=O)c1cccc(-c2cc3[nH]c(=O)c4ccccc4n3n2)c1`: 0.8 µM; `CN1CCN(C(=O)c2cnn3c2[nH]c(=O)c2ccccc23)CC1`: > 1 µM.
The same measure, in the same setting: next, `CN1CCN(C(=O)c2ccc(-c3cc4[nH]c(=O)c5ccccc5n4n3)cc2)CC1`: 1.4 µM; `CCc1ccc(-c2cc3[nH]c(=O)c4ccccc4n3n2)cc1`: 0.5 µM.
Still for that read-out and setting: with `O=c1[nH]c2cc(-c3ccc(Br)cc3)nn2c2ccccc12` the figure was 0.7 µM.
Turning to `CN(C)CCN(C)C(=O)c1ccc(-c2cc3[nH]c(=O)c4ccccc4n3n2)cc1`, 1.3 µM corresponded to half-maximal inhibition (IC50).
Take `O=C(c1cc2[nH]c(=O)c3ccccc3n2n1)N1CCCNCC1`: the IC50 is 0.03 µM.
As to `O=C(c1cc2[nH]c(=O)c3ccccc3n2n1)N1CCC(CN2CCOCC2)CC1`, the IC50 amounted to 1.1 µM.
Consider `O=C(NCCC1(N2CCOCC2)CCCC1)c1cc2[nH]c(=O)c3ccccc3n2n1`, for which the IC50 was 0.09 µM. This IC50 lies about 12-fold lower than the previous one.
On to `O=C(c1cnn2c1[nH]c(=O)c1ccccc12)N1CCCNCC1`, for which the half-maximal inhibitory concentration (IC50) is > 1 µM.
The molecule `CN1CCN(C(=O)c2cc3[nH]c(=O)c4ccccc4n3n2)CC1` gave a 50% inhibitory concentration (IC50) of 0.3 µM. In other words, the sub-micromolar range.
The same measure, in the same setting: next, `COc1ccc(-c2cc3[nH]c(=O)c4ccccc4n3n2)c(OC)c1`: 0.2 µM; `CN1CCN(C(=O)c2cccc(-c3cc4[nH]c(=O)c5ccccc5n4n3)c2)CC1`: 1 µM.
Turning to `CN1CCC(CNC(=O)c2cc3[nH]c(=O)c4ccccc4n3n2)CC1`, the 50% inhibitory concentration (IC50) is 0.07 µM.
Same read-out and setting: next, `O=c1[nH]c2cc(-c3ccc(F)cc3)nn2c2ccccc12`: > 1 µM.
The same measure, in the same setting: with `O=C(NCCN1CCOCC1)c1cnn2c1[nH]c(=O)c1ccccc12` the figure was > 1 µM; with `COc1cc(-c2cc3[nH]c(=O)c4ccccc4n3n2)cc(OC)c1OC`, 0.03 µM; with `O=C(c1cc2[nH]c(=O)c3ccccc3n2n1)N1CCN(CC2CC2)CC1`, 0.3 µM.
On to `CCCc1ccc(-c2cc3[nH]c(=O)c4ccccc4n3n2)cc1`, for which the IC50 is > 1 µM.
Same read-out and setting: with `O=C(c1ccc(-c2cc3[nH]c(=O)c4ccccc4n3n2)cc1)N1CCN2CCC[C@H]2C1` the figure was 2.5 µM; with `O=C(c1cc2[nH]c(=O)c3ccccc3n2n1)N1CCN2CCC[C@H]2C1`, 0.6 µM; with `COc1ccc(-c2cc3[nH]c(=O)c4ccccc4n3n2)cc1OC`, 0.2 µM.
As for `O=C(NCCN1CCOCC1)c1cc2[nH]c(=O)c3ccccc3n2n1`, the half-maximal inhibitory concentration (IC50) stood at 0.14 µM.
Molecule `O=c1[nH]c2cc(-c3ccc(Cl)cc3)nn2c2ccccc12` displayed an IC50 of 0.5 µM.
Turning to `O=c1[nH]c2cc(-c3cccc(F)c3)nn2c2ccccc12`, the IC50 was > 1 µM.
Same read-out and setting: with `CC(C)(C)c1ccc(-c2cc3[nH]c(=O)c4ccccc4n3n2)cc1` the figure was > 1 µM; with `O=c1[nH]c2cc(-c3ccccc3)nn2c2ccccc12`, 0.1 µM.

Values taken from ChEMBL document CHEMBL1152388, “Identification of substituted pyrazolo[1,5-a]quinazolin-5(4H)-one as potent poly(ADP-ribose)polymerase-1 (PARP-1) inhibitors” (Bioorg Med Chem Lett, 2009).
